The source of these data is patent US12083139B2, “Use of IGF-2 receptor agonist ligands for treatment of Angelman Syndrome and autism” (New York University, priority 2018, dated 2024).

Where two headings read alike, the source gives them in different places.

Test [1] concerns Ube3a−/+ mice (mouse model of AS). Put plainly: Contextual fear conditioning (CFC) in AS mice. Format: in vivo. As to conditions: s.c. injection 20 min before training, test 24 h after training. Here is the method:
(§1) FIG. 1. IGF-2 reverses most behavioral deficits observed in a mouse model of AS. Experimental timelines are shown above graphs. In all experiments mice received a s.c. injection of either vehicle or IGF-2 (↑) 20 min before either training or testing. All data are expressed as the mean±s.e.m. N=8-12 per group. Two-way analysis of variance (ANOVA) followed by Bonferroni post-hoc tests. *P<0.05, **P<0.01, ***P<0.001. (A) Percentage of time spent freezing before (Pre-US) or after (Post-US) the shock delivery during contextual fear conditioning training and at testing at 24 hours (h) after training (Test) of normal mice (wild type, WT), which served as controls and Ube3a−/+ mice (mouse model of AS, also referred to as mice) injected with vehicle or IGF-2. (B) Percent exploration preference for a novel object compared to a familiar object during novel object recognition of WT and Ube3a−/+ mice injected with vehicle or IGF-2, 20 min before training, tested at 4 h and 24 h after training. […]
As measures of learning/cognitive responses, which are known to be altered in Angelman Syndrome (AS), we tested different types of aversive and non-aversive memories. […] We tested memory retention one day later (a time that is used to measure long-term memory) by placing mice back in the same chamber and measured their fear-related (freezing) behavior.

In test [2] the test system is Ube3a−/+ (AS) mice. Put plainly: Novel object recognition (nOR) in AS mice. Format: in vivo. Here is the method:
(§2) FIG. 1. IGF-2 reverses most behavioral deficits observed in a mouse model of AS. Experimental timelines are shown above graphs. In all experiments mice received a s.c. injection of either vehicle or IGF-2 (↑) 20 min before either training or testing. All data are expressed as the mean±s.e.m. N=8-12 per group. Two-way analysis of variance (ANOVA) followed by Bonferroni post-hoc tests. *P<0.05, **P<0.01, ***P<0.001. (A) Percentage of time spent freezing before (Pre-US) or after (Post-US) the shock delivery during contextual fear conditioning training and at testing at 24 hours (h) after training (Test) of normal mice (wild type, WT), which served as controls and Ube3a−/+ mice (mouse model of AS, also referred to as mice) injected with vehicle or IGF-2. (B) Percent exploration preference for a novel object compared to a familiar object during novel object recognition of WT and Ube3a−/+ mice injected with vehicle or IGF-2, 20 min before training, tested at 4 h and 24 h after training. (C) Percent of correct alternations (% Correct) in a Y-maze of WT and Ube3a−/+ mice injected with vehicle or IGF-2 before testing (Test). (D) Latency to fall off from a rotating rod by WT and Ube3a−/+ mice injected with vehicle or IGF-2, 20 min before Test, and tested again 3 and 7 days later. (E) Time spent burying marbles by WT and Ube3a−/+ mice injected with vehicle or IGF-2, 20 min before Test. (F) Time spent in the center of an open field by WT and Ube3a−/+ mice following a vehicle or IGF-2 injection given 20 min before Test. The bars for each set from left to right are: WT Vehicle, WT IGF-2, Ube3a−/+ Vehicle, and Ube3a−/+ IGF-2.
(§3) FIG. 5. M6P reverses cognitive and motor deficits in AS mice. Experimental timelines are shown above graphs. In all experiments mice received a s.c. injection of either vehicle or 850 μg/Kg of M6P (IGF-2R.L1 or L1)(↑) 20 min before either training or testing. (A) Percent exploration preference for a novel object compared to a familiar object during the nOR paradigm of WT (Control) and Ube3a−/+(AS) mice injected with vehicle or IGF-2R.L1 20 min before training, and tested at 4 h and 24 h after training. N=4/group. Data are expressed as the mean±s.e.m. Two-way analysis of variance (ANOVA) followed by Bonferroni post-hoc tests. *P<0.05, **P<0.01, ***P<0.001. (B) Percent of correct alternations (% Correct) in a Y-maze of WT and AS mice injected with vehicle or M6P before testing (Test). Data are expressed as the mean (±s.e.m.). (C) Hindlimb clasping scores of WT and AS mice injected with vehicle or IGF-2R.L1, 20 min before Test. Hindlimb clasping scores are measured and expressed as following: If the hindlimbs are consistently splayed outward, away from the abdomen, it is assigned a score of 0. If one hindlimb is retracted toward the abdomen for more than 50% of the time suspended, it receives a score of 1. If both hindlimbs are partially retracted toward the abdomen for more than 50% of the time suspended, it receives a score of 2. If its hindlimbs are entirely retracted and touching the abdomen for more than 50% of the time suspended, it receives a score of 3. Data are expressed in scores. B and C: N=8-14 per group. Two-way analysis of variance (ANOVA) followed by Tukey post-hoc tests. *P<0.05, **P<0.01, ***P<0.001.
FIG. 6. PnM6P reverses memory and motor deficits in AS mice. Experimental timelines are shown above graphs. In all experiments mice received a s.c. injection of either vehicle or 850 μg/Kg of phosphonate-M6P (PnM6P) called IGF-2R.L2 (or L2) (↑) 20 min before either training or testing. (A) Percent exploration preference for a novel object compared to a familiar object during the nOR paradigm of WT (Control) and Ube3a−/+ (AS) mice injected with vehicle or L2 before training, and tested at 4 h, 24 h and 5 days (5 d) after training. N=4/group. Data are expressed as the % mean±s.e.m. (B). […]

A further test concerns WT (Control) mice. Put plainly: Novel object recognition (nOR) in WT mice. Format: in vivo. How it is done: as §2, §3
FIG. 6. PnM6P reverses memory and motor deficits in AS mice. Experimental timelines are shown above graphs. […] Data are expressed as the % mean±s.e.m. […]

The subject of test [3] is Ube3a−/+ (AS) mice. Put plainly: Spontaneous alternation in three-arm Y-maze in AS mice. Format: in vivo. As to conditions: s.c. injection 20 min before test (M6P 850 μg/kg). Here is the method: as §1, with “training. (C) Percent of correct alternations (% Correct) in a Y-maze of WT and Ube3a−/+ mice injected with vehicle or IGF-2 before testing (Test).” for “training.”
FIG. 5. […] Data are expressed as the mean±s.e.m. […] Data are expressed as the mean (±s.e.m.). […] Hindlimb clasping scores are measured and expressed as following: If the hindlimbs are consistently splayed outward, away from the abdomen, it is assigned a score of 0. […]

Test [4] has as its system Ube3a−/+ (AS) mice. Put plainly: RotaRod test (accelerating rotating rod) in AS mice. Type of test: in vivo. The note with it: s.c. injection 20 min before test (L2 850 μg/kg). Here is the method:
as §1, with “training. (C) Percent of correct alternations (% Correct) in a Y-maze of WT and Ube3a−/+ mice injected with vehicle or IGF-2 before testing (Test).” for “training.”
(§4) FIG. 6. […] Data are expressed as the % mean±s.e.m. […]
AS is also associated with robust motor impairments, which again are reproduced in the AS mice. Motor coordination and ability is reliably assessed in mice by placing them on an accelerating rotating rod (RotaRod test). […]
(In the rotarod test animals must keep their balance on a rotating rod.)

In test [5] the test system is Ube3a−/+ (AS) mice. The test can be described thus: Marble-burying test in AS mice. Type of test: in vivo. The note with it: s.c. injection 20 min before test. Here is the method: as §2, with “(F) Time spent in the center of an open field by WT and Ube3a−/+ mice following a vehicle or IGF-2 injection given 20 min before Test. The bars for each set from left to right are: WT Vehicle, WT IGF-2, Ube3a−/+ Vehicle, and Ube3a−/+ IGF-2.” left out

Test [6] relates to Ube3a−/+ (AS) mice. The test can be described thus: Open field (center entry, anxiety-like behavior) in AS mice. Format: in vivo. The note with it: s.c. injection 20 min before test. Here is the method:
as §1, with “training. (C) Percent of correct alternations (% Correct) in a Y-maze of WT and Ube3a−/+ mice injected with vehicle or IGF-2 before testing (Test).” for “training.”
To measure the effect of IGF-2 on anxiety-like behavior we employed open field and measured center entry (which measures anxiety behavior): No effect of IGF-2 treatment was found on AS mice, which remained altered compared to the behavior of normal mice (FIG. 1F).

The target of the next test is IGF-2 receptor (Homo sapiens, UniProt P11717). As to conditions: cited from earlier work.
The subject of test [7] is Ube3a−/+ (AS) mice. The test can be described thus: Hindlimb clasping in AS mice. Type of test: in vivo. As to conditions: 850 μg/kg s.c. 20 min before test. Here is the method:
as §3, with “If both hindlimbs are partially retracted toward the abdomen for more than 50% of the time suspended, it receives a score of 2. If its hindlimbs are entirely retracted and touching the abdomen for more than 50% of the time suspended, it receives a score of 3. Data are expressed in scores. B and C: N=8-14 per group. Two-way analysis of variance (ANOVA) followed by Tukey post-hoc tests. *P<0.05, **P<0.01, ***P<0.001.” left out
as §4
L2 injection reversed motor deficits as measured by hindlimb clasping.

[8] abbreviates: s.c. injection 20 min before training (M6P and L2 850 μg/kg), test 4 h after training.
[9] abbreviates: s.c. injection 20 min before training (M6P and L2 850 μg/kg), test 24 h after training.
Setting [10] is: L2 850 μg/kg s.c. before training, 5 d test.

Chain of IGF-2 receptor (P11717 41-2491): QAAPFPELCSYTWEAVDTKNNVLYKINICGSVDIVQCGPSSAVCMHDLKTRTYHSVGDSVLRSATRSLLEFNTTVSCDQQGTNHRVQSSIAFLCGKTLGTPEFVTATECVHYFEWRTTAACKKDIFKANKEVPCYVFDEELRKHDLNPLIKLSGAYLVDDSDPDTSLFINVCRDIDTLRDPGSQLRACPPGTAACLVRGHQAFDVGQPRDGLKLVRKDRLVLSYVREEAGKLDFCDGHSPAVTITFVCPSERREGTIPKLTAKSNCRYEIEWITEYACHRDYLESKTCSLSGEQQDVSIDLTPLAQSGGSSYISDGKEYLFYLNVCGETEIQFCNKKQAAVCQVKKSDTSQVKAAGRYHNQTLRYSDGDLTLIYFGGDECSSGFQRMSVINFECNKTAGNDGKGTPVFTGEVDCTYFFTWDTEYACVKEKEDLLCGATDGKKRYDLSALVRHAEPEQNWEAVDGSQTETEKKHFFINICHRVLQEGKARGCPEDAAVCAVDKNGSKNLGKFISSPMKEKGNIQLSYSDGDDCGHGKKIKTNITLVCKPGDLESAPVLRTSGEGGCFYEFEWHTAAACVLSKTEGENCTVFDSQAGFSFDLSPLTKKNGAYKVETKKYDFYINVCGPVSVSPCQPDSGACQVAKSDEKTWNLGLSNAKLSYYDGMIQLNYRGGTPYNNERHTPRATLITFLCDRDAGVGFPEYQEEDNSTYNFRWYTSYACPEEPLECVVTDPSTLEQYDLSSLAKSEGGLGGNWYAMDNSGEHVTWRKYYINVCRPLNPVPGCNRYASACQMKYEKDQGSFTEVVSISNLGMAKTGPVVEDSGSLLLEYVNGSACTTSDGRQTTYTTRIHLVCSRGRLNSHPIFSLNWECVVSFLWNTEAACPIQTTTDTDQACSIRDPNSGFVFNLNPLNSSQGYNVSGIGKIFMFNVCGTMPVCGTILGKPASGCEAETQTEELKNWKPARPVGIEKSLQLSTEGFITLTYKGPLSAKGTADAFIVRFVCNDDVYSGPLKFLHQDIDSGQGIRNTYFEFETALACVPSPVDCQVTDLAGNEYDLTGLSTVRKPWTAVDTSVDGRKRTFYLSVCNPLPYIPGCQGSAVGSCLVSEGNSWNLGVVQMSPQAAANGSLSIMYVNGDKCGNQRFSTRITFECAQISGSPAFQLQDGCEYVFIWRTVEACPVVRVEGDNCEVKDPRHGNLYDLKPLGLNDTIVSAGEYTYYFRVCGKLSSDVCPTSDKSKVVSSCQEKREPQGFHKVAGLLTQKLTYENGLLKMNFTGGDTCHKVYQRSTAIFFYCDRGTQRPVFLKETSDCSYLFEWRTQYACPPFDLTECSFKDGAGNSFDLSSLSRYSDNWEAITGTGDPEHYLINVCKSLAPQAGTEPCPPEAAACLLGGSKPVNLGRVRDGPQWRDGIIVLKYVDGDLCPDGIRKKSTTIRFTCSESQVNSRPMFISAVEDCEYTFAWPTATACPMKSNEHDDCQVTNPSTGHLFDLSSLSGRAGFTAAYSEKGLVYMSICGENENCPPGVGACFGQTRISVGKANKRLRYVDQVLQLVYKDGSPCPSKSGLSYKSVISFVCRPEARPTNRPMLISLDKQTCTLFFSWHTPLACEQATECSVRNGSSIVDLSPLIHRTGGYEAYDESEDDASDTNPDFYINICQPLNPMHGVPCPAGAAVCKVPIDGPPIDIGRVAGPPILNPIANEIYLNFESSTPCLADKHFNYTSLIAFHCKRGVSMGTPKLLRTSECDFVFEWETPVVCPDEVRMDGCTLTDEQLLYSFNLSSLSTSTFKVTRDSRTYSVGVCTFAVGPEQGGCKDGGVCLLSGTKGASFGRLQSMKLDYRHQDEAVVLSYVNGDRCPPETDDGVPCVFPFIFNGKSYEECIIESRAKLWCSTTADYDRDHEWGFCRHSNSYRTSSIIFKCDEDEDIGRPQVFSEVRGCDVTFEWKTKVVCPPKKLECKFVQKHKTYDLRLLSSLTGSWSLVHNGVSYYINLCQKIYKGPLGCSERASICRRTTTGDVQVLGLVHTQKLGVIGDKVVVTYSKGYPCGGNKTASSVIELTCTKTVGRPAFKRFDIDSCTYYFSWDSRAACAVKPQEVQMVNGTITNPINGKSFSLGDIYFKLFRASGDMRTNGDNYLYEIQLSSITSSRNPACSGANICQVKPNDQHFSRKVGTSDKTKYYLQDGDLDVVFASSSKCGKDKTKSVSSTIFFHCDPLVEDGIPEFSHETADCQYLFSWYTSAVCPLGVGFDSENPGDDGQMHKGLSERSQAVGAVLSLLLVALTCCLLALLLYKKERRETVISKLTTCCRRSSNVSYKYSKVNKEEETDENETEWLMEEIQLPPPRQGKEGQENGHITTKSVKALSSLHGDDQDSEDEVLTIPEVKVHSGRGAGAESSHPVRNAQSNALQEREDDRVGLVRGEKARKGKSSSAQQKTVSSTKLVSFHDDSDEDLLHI

With “IGF-2: insulin-like growth factor 2 (IGF-2 or IGF-II), IGF-2 receptor agonist ligand”, the “Freezing (long-term memory retention) in contextual fear conditioning” value in [1] was “completely reversed the memory impairment of AS mice”. Further, the “Exploration preference for novel object (nOR memory)” value (“Exploration preference” for short) in the test on Ube3a−/+ (AS) mice [2] (setting [8]) is on record as “completely reversed the memory deficits of AS mice”; with Ube3a−/+ (AS) mice [2] (setting [9]), “significant preference for a novel object”; with WT (Control) mice (setting [9]) it was “significant preference for a novel object”. Further, the “Correct alternations in Y-maze (exploratory strategy/working memory)” value in the test with Ube3a−/+ (AS) mice [3] is on record as “reverses the repetitive, inflexible behavior”. The “Latency to fall off rotating rod (motor ability)” value in the test on Ube3a−/+ (AS) mice [4] is reported as “significant improvement in motor ability”. In addition, the “Marble burying (time spent burying)” value in the test on Ube3a−/+ (AS) mice [5] is on record as “rescued the deficits of the AS mice”. The “Open field center entry (anxiety-like behavior)” value with Ube3a−/+ (AS) mice [6] is recorded as “No effect”. Moreover, the Kd with IGF-2 receptor (Williams et al., Science 2012, read-out: Kd for IGF-2 receptor) was 40 to 60 nM.
Consider `COC1OC(CCP(=O)(OCOC(=O)OC(C)C)OCOC(=O)OC(C)C)C(O)C(O)C1O` [L2, Methyl 6-Deoxy-6-diisopropyloxycarbonyloxy-methyl-phosphinylmethyl-α-D-mannopyranoside], for which the “Exploration preference” value in the test with Ube3a−/+ (AS) mice [2] (setting [10]) is given as “none of the groups (vehicle or L2 injected) showed significant memory”; in the test with Ube3a−/+ (AS) mice [2] (setting [8]), “significantly reversed the deficit of AS mice in nOR”; in the test on Ube3a−/+ (AS) mice [2] (setting [9]), “showed significant memory compared to vehicle-injected groups”; with WT (Control) mice (setting [10]) it was “none of the groups (vehicle or L2 injected) showed significant memory”; in the test with WT (Control) mice (s.c. injection 20 min before training (L2 850 μg/kg), test 4 h after training), “significantly enhanced nOR memory retention in WT mice”; with WT (Control) mice (setting [9]) it was “showed significant memory compared to vehicle-injected groups”. Besides, the “Latency to fall off rotating rod (motor ability)” value in the test with Ube3a−/+ (AS) mice [4] is recorded as “significantly improved their motor ability on the RotaRod”. Also, the “Hindlimb clasping score (motor deficit)” value in the test with Ube3a−/+ (AS) mice [7] is “returned their hindlimb clasping behavior to control levels”.
Take `O=P(O)(O)OCC1OC(O)C(O)C(O)C1O` (stereo not drawn) [M6P, mannose-6-phosphate]: the “Exploration preference” value in the test with Ube3a−/+ (AS) mice [2] (setting [8]) is on record as “reversed memory deficits in AS mice”; with Ube3a−/+ (AS) mice [2] (setting [9]), “significant memory retention”; with WT (Control) mice (setting [9]), “significant memory retention”. Further, the “Correct alternations in Y-maze (exploratory strategy/working memory)” value in the test on Ube3a−/+ (AS) mice [3] was “completely reversed the deficit”. The “Hindlimb clasping score (motor deficit)” value in the test with Ube3a−/+ (AS) mice [7] was “significantly reduced hind limb clasping”. Also, the Kd is about 1 nM on IGF-2 receptor (one of the two known binding sites, Olson et al., J. Biol. Chem. 2004, read-out: Affinity for IGF-2 receptor) and about 1000 nM on IGF-2 receptor (other of the two known binding sites, Olson et al., J. Biol. Chem. 2004, read-out: Affinity for IGF-2 receptor).
